Source: article PMC8296573, “Synthesis and Biological Evaluation of Fingolimod Derivatives as Antibacterial Agents” (ACS Omega, 2021)
In brackets after ≈: the same amount, converted by molar mass. Like-named read-outs stand apart in the source and are kept apart here.

What was measured:
S. aureus ATCC 25923 [1] = assay: Antibacterial activity, pre-exposure (planktonic cells and biofilm formation); assay type: cell-based, Staphylococcus aureus; conditions: for MIC / inhibition at 5 µM / inhibition at 10 µM / inhibition at 15 µM / inhibition at 25 µM: Staphylococcus aureus, ATCC25923; for inhibition at 5 µM / inhibition at 10 µM / inhibition at 15 µM / inhibition at 25 µM / Average inhibition %, biofilms viability / Average inhibition %, planktonic cells viability: pre-exposure, ± SD
Outline: (§1)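 Pre-exposure format: compounds added with bacteria, 18 h aerobic at 37 °C with shaking. Planktonic growth read by OD and resazurin (20 μM final) fluorescence; biofilms by resazurin viability then crystal violet biomass (A595). Resazurin incubation time/temperature varied by species.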

S. aureus ATCC 25923 [2] = assay: Antibacterial activity, post-exposure on preformed 18-h-old biofilms; assay type: cell-based, Staphylococcus aureus; conditions: ± SD; for inhibition at 25 µM / inhibition at 50 µM / inhibition at 100 µM / inhibition at 200 µM: Staphylococcus aureus; for inhibition at 25 µM: ATCC25923, 25 µM; for inhibition at 50 µM: ATCC25923, 50 µM; for inhibition at 100 µM: ATCC25923, 100 µM; for inhibition at 200 µM: ATCC25923, 200 µM
Outline: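 Biofilms grown 18 h without compound, medium then replaced and compound added for a further 24 h. Planktonic OD and resazurin (20 μM final) fluorescence (ex 560/em 590 nm) read; washed biofilms stained with 20 μM resazurin 30 min at 37 °C, then ethanol-fixed and crystal violet-stained, absorbance 595 nm.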

A. baumannii NCTC 13423 = assay: Antibacterial activity, pre-exposure; assay type: cell-based, Acinetobacter baumannii; conditions: for Average inhibition %, biofilms viability / Average inhibition %, planktonic cells viability / inhibition at 10 µM / inhibition at 15 µM / inhibition at 25 µM / inhibition at 50 µM: A. baumannii NCTC 13423, pre-exposure, ± SD; for inhibition at 10 µM / inhibition at 15 µM / inhibition at 25 µM / inhibition at 50 µM / MIC: Acinetobacter baumannii, NCTC13423
Outline: as §1

P. aeruginosa ATCC 9027 = assay: Antibacterial activity, pre-exposure; assay type: cell-based, Pseudomonas aeruginosa; conditions: for Average inhibition %, biofilms viability / Average inhibition %, planktonic cells viability / inhibition at 50 µM / inhibition at 100 µM / inhibition at 150 µM / inhibition at 200 µM: P. aeruginosa ATCC 9027, pre-exposure, ± SD; for MIC / inhibition at 50 µM / inhibition at 100 µM / inhibition at 150 µM / inhibition at 200 µM: Pseudomonas aeruginosa; for inhibition at 50 µM / inhibition at 100 µM / inhibition at 150 µM / inhibition at 200 µM: ATCC9027
Outline: as §1

[3] = 10 µM, read-out: Average inhibition %, biofilms biomass
[4] = 10 µM, read-out: Average inhibition %, planktonic cells turbidity
[5] = 15 µM, read-out: Average inhibition %, biofilms biomass
[6] = 15 µM, read-out: Average inhibition %, planktonic cells turbidity
[7] = 25 µM, read-out: Average inhibition %, biofilms biomass
[8] = 25 µM, read-out: Average inhibition %, planktonic cells turbidity
[9] = read-out: Average inhibition %, biofilms biomass
[10] = read-out: Average inhibition %, planktonic cells turbidity
[11] = 50 µM, read-out: Average inhibition %, biofilms biomass
[12] = 50 µM, read-out: Average inhibition %, planktonic cells turbidity

In the case of CCCCCCCCOc1ccc(CCC(N)(CO)CO)cc1 [Compound 48, 2-Amino-2-[4-(octyloxy)phenethyl]propane-1,3-diol], the MIC (S. aureus ATCC 25923 [1]; lowest concentration with no visible growth (>90% inhibition of turbidity and viability of planktonic cells), 18 h, read-out: MIC S. aureus ATCC 25923) is reported as 15 to 25 µM (≈ 4.85 to 8.09 µg/mL), the inhibition at 5 µM (S. aureus ATCC 25923 [1]; 5 µM, read-out: Average inhibition %, biofilms biomass) is reported as 28.7 ± 25.2% and the inhibition at 5 µM (S. aureus ATCC 25923 [1]; 5 µM, read-out: Average inhibition %, planktonic cells turbidity) is reported as 13.6 ± 13.1%. The inhibition at 10 µM (S. aureus ATCC 25923 [1]; [3]) was 31.9 ± 24.6%, the inhibition at 10 µM (S. aureus ATCC 25923 [1]; [4]) was 40.8 ± 18.5% and the inhibition at 15 µM (S. aureus ATCC 25923 [1]; [5]) was 53.1 ± 42.8%. For the same molecule, the inhibition at 15 µM (S. aureus ATCC 25923 [1]; [6]) was 47.2 ± 50%, the inhibition at 25 µM (S. aureus ATCC 25923 [1]; [7]) was 92 ± 5.9% and the inhibition at 25 µM (S. aureus ATCC 25923 [1]; [8]) was 97.4 ± 2.6%. The MIC (S. aureus ATCC 25923 [1]; read-out: MIC (S. aureus)) was 15 to 25 µM (≈ 4.85 to 8.09 µg/mL), the “Average inhibition %, biofilms viability” value (S. aureus ATCC 25923 [1]; 5 µM) was 22.4 ± 5.4% and the “Average inhibition %, planktonic cells viability” value (S. aureus ATCC 25923 [1]; 5 µM) was 0 ± 0%. For the same molecule, the “Average inhibition %, biofilms viability” value (S. aureus ATCC 25923 [1]; 10 µM) was 16.7 ± 15%, the “Average inhibition %, planktonic cells viability” value (S. aureus ATCC 25923 [1]; 10 µM) was 20.3 ± 20.7% and the “Average inhibition %, biofilms viability” value (S. aureus ATCC 25923 [1]; 15 µM) was 48.8 ± 44.2%. The “Average inhibition %, planktonic cells viability” value (S. aureus ATCC 25923 [1]; 15 µM) was 36.9 ± 54.3%, the “Average inhibition %, biofilms viability” value (S. aureus ATCC 25923 [1]; 25 µM) was 99.5 ± 0.8% and the “Average inhibition %, planktonic cells viability” value (S. aureus ATCC 25923 [1]; 25 µM) was 99.7 ± 0.2%. The “Average inhibition %, biofilms viability” value (S. aureus ATCC 25923 [2]; 25 µM) was 21 ± 14.6%, the “Average inhibition %, planktonic cells viability” value (S. aureus ATCC 25923 [2]; 25 µM) was 0.9 ± 1.6% and the “Average inhibition %, biofilms viability” value (S. aureus ATCC 25923 [2]; 50 µM) was 42.3 ± 5.5%. The “Average inhibition %, planktonic cells viability” value (S. aureus ATCC 25923 [2]; 50 µM) was 0 ± 0%, the “Average inhibition %, biofilms viability” value (S. aureus ATCC 25923 [2]; 100 µM) was 52.5 ± 9.2% and the “Average inhibition %, planktonic cells viability” value (S. aureus ATCC 25923 [2]; 100 µM) was 21.3 ± 18.5%. For the same molecule, the “Average inhibition %, biofilms viability” value (S. aureus ATCC 25923 [2]; 200 µM) was 52 ± 9.4%, the “Average inhibition %, planktonic cells viability” value (S. aureus ATCC 25923 [2]; 200 µM) was 48.3 ± 23.5% and the inhibition at 25 µM (S. aureus ATCC 25923 [2]; [9]) was 47.6 ± 0.5%. For the same molecule, the inhibition at 25 µM (S. aureus ATCC 25923 [2]; [10]) was 9.3 ± 10%, the inhibition at 50 µM (S. aureus ATCC 25923 [2]; [9]) was 57.8 ± 6.5% and the inhibition at 50 µM (S. aureus ATCC 25923 [2]; [10]) was 12.6 ± 10.9%. The inhibition at 100 µM (S. aureus ATCC 25923 [2]; [9]) was 65.9 ± 12.5%, the inhibition at 100 µM (S. aureus ATCC 25923 [2]; [10]) was 31.2 ± 10.9% and the inhibition at 200 µM (S. aureus ATCC 25923 [2]; [9]) was 72.5 ± 9.8%. For the same molecule, the inhibition at 200 µM (S. aureus ATCC 25923 [2]; [10]) was 40 ± 13.2%, the “Average inhibition %, biofilms viability” value (A. baumannii NCTC 13423; 10 µM) was 0 ± 0% and the “Average inhibition %, planktonic cells viability” value (A. baumannii NCTC 13423; 10 µM) was 5.1 ± 0.7%. For the same molecule, the “Average inhibition %, biofilms viability” value (A. baumannii NCTC 13423; 15 µM) was 1.4 ± 1.2%, the “Average inhibition %, planktonic cells viability” value (A. baumannii NCTC 13423; 15 µM) was 0 ± 0% and the “Average inhibition %, biofilms viability” value (A. baumannii NCTC 13423; 25 µM) was 68.3 ± 27.4%. For the same molecule, the “Average inhibition %, planktonic cells viability” value (A. baumannii NCTC 13423; 25 µM) was 48.6 ± 48.9%, the “Average inhibition %, biofilms viability” value (A. baumannii NCTC 13423; 50 µM) was 93.8 ± 1.3% and the “Average inhibition %, planktonic cells viability” value (A. baumannii NCTC 13423; 50 µM) was 97.8 ± 0.3%. It also gave an inhibition at 10 µM (A. baumannii NCTC 13423; [3]) of 0%, an inhibition at 10 µM (A. baumannii NCTC 13423; [4]) of 0% and an inhibition at 15 µM (A. baumannii NCTC 13423; [5]) of 0%. The inhibition at 15 µM (A. baumannii NCTC 13423; [6]) was 0%, the inhibition at 25 µM (A. baumannii NCTC 13423; [7]) was 38.9 ± 34.1% and the inhibition at 25 µM (A. baumannii NCTC 13423; [8]) was 63.2 ± 30.2%. The inhibition at 50 µM (A. baumannii NCTC 13423; [11]) was 56.9 ± 19.5%, the inhibition at 50 µM (A. baumannii NCTC 13423; [12]) was 94.4 ± 2.3% and the MIC (A. baumannii NCTC 13423; pre-exposure, Inactive = no activity up to 50 μM, > = some inhibition but no MIC reached, read-out: MIC A. baumannii NCTC 13423) was > 50 µM. The MIC (A. baumannii NCTC 13423; supplementary molecular formula strings sheet, read-out: MIC (A. baumannii)) was > 50 µM, the “Average inhibition %, biofilms viability” value (P. aeruginosa ATCC 9027; 50 µM) was 27.9 ± 25.6% and the “Average inhibition %, planktonic cells viability” value (P. aeruginosa ATCC 9027; 50 µM) was 28 ± 9%. The “Average inhibition %, biofilms viability” value (P. aeruginosa ATCC 9027; 100 µM) was 20.3 ± 9.9%, the “Average inhibition %, planktonic cells viability” value (P. aeruginosa ATCC 9027; 100 µM) was 76.1 ± 19.4% and the “Average inhibition %, biofilms viability” value (P. aeruginosa ATCC 9027; 150 µM) was 17 ± 12.1%. The “Average inhibition %, planktonic cells viability” value (P. aeruginosa ATCC 9027; 150 µM) was 88 ± 8.4%, the “Average inhibition %, biofilms viability” value (P. aeruginosa ATCC 9027; 200 µM) was 12.2 ± 5.8% and the “Average inhibition %, planktonic cells viability” value (P. aeruginosa ATCC 9027; 200 µM) was 93.5 ± 0.6%. The MIC (P. aeruginosa ATCC 9027; ATCC9027, pre-exposure, Inactive = no activity up to 200 μM, > = some inhibition but no MIC reached, read-out: MIC P. aeruginosa ATCC 9027) was > 200 µM, the MIC (P. aeruginosa ATCC 9027; ATCC9027, supplementary molecular formula strings sheet, read-out: MIC (P. aeruginosa)) was > 200 µM and the inhibition at 50 µM (P. aeruginosa ATCC 9027; [11]) was 14.7 ± 10.8%. It also gave an inhibition at 50 µM (P. aeruginosa ATCC 9027; [12]) of 18.6 ± 7.4%, an inhibition at 100 µM (P. aeruginosa ATCC 9027; 100 µM, read-out: Average inhibition %, biofilms biomass) of 29.1 ± 19.9% and an inhibition at 100 µM (P. aeruginosa ATCC 9027; 100 µM, read-out: Average inhibition %, planktonic cells turbidity) of 83.9 ± 2.6%. For the same molecule, the inhibition at 150 µM (P. aeruginosa ATCC 9027; 150 µM, read-out: Average inhibition %, biofilms biomass) was 37.8 ± 2.9%, the inhibition at 150 µM (P. aeruginosa ATCC 9027; 150 µM, read-out: Average inhibition %, planktonic cells turbidity) was 85.6 ± 3.3% and the inhibition at 200 µM (P. aeruginosa ATCC 9027; 200 µM, read-out: Average inhibition %, biofilms biomass) was 36.9 ± 6.7%. It also gave an inhibition at 200 µM (P. aeruginosa ATCC 9027; 200 µM, read-out: Average inhibition %, planktonic cells turbidity) of 87.8 ± 4.2%.
